Experiments:
Assay in all cases: KINOMEscan competition binding
Conditions in all cases: compound 10.0 µM
ANKK1 (human) = ANKK1 (human) (UniProt Q8NFD2)
AURKC (human) = AURKC (human) (UniProt Q9UQB9)
BMPR2 (human) = BMPR2 (human) (UniProt Q13873)
BRSK2 (human) = BRSK2 (human) (UniProt Q8IWQ3)
CDK4 CCND3 (human) = CDK4 CCND3 (human) (UniProt P11802+P30281)
CDKL5 (human) = CDKL5 (human) (UniProt O76039)
CSNK1G1 (human) = CSNK1G1 (human) (UniProt Q9HCP0)
CSNK2A2 (human) = CSNK2A2 (human) (UniProt P19784)
DAPK1 (human) = DAPK1 (human) (UniProt P53355)
DDR2 (human) = DDR2 (human) (UniProt Q16832)
DYRK2 (human) = DYRK2 (human) (UniProt Q92630)
EGFR (human) = EGFR (human) (UniProt P00533)
EPHA7 (human) = EPHA7 (human) (UniProt Q15375)
GSK3B (human) = GSK3B (human) (UniProt P49841)
HIPK1 (human) = HIPK1 (human) (UniProt Q86Z02)
HUNK (human) = HUNK (human) (UniProt P57058)
[1] = molecular target: JAK3 JH1 catalytic (human) (UniProt P52333)
KDR (human) = KDR (human) (UniProt P35968)
MAP3K5 (human) = MAP3K5 (human) (UniProt Q99683)
MAP4K4 (human) = MAP4K4 (human) (UniProt O95819)
MAPK3 (human) = MAPK3 (human) (UniProt P27361)
MAPK4 (human) = MAPK4 (human) (UniProt P31152)
MINK1 (human) = MINK1 (human) (UniProt Q8N4C8)
MUSK (human) = MUSK (human) (UniProt O15146)
MYLK3 (human) = MYLK3 (human) (UniProt Q32MK0)
MYO3A (human) = MYO3A (human) (UniProt Q8NEV4)
NEK4 (human) = NEK4 (human) (UniProt P51957)
PRKD2 (human) = PRKD2 (human) (UniProt Q9BZL6)
PTK2 (human) = PTK2 (human) (UniProt Q05397)
RPS6KA6 KD1 (human) = RPS6KA6 KD1 (human) (UniProt Q9UK32)
SGK110 (human) = SGK110 (human) (UniProt P0C264)
SLK (human) = SLK (human) (UniProt Q9H2G2)
STK10 (human) = STK10 (human) (UniProt O94804)
STK32A (human) = STK32A (human) (UniProt Q8WU08)
STK38 (human) = STK38 (human) (UniProt Q15208)
STK4 (human) = STK4 (human) (UniProt Q13043)
TEK (human) = TEK (human) (UniProt Q02763)
TTK (human) = TTK (human) (UniProt P33981)
ULK1 (human) = ULK1 (human) (UniProt O75385)
ULK3 (human) = ULK3 (human) (UniProt Q6PHR2)

Chain of RPS6KA6 KD1 (human) (Q9UK32 whole entry, looked up): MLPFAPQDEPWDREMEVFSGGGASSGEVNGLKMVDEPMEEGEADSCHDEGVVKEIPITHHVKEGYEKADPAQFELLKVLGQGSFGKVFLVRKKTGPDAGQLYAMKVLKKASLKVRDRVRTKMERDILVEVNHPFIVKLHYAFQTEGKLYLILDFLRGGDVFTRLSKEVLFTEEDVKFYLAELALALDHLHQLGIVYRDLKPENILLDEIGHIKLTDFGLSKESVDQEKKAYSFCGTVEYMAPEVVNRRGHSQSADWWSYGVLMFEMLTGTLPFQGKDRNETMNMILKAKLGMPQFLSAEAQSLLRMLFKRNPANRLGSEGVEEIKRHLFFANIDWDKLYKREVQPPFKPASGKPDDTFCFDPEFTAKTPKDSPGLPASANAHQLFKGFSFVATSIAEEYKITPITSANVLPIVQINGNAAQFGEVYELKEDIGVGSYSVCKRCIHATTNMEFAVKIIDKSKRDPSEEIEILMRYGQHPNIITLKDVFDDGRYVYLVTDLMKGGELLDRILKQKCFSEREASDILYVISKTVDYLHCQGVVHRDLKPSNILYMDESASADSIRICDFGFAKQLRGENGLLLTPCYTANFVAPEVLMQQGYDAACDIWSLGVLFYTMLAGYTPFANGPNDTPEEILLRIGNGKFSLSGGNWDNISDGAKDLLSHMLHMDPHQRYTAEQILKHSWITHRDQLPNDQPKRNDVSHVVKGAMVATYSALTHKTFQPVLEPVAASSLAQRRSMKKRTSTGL
Chain of BMPR2 (human) (Q13873 whole entry, looked up): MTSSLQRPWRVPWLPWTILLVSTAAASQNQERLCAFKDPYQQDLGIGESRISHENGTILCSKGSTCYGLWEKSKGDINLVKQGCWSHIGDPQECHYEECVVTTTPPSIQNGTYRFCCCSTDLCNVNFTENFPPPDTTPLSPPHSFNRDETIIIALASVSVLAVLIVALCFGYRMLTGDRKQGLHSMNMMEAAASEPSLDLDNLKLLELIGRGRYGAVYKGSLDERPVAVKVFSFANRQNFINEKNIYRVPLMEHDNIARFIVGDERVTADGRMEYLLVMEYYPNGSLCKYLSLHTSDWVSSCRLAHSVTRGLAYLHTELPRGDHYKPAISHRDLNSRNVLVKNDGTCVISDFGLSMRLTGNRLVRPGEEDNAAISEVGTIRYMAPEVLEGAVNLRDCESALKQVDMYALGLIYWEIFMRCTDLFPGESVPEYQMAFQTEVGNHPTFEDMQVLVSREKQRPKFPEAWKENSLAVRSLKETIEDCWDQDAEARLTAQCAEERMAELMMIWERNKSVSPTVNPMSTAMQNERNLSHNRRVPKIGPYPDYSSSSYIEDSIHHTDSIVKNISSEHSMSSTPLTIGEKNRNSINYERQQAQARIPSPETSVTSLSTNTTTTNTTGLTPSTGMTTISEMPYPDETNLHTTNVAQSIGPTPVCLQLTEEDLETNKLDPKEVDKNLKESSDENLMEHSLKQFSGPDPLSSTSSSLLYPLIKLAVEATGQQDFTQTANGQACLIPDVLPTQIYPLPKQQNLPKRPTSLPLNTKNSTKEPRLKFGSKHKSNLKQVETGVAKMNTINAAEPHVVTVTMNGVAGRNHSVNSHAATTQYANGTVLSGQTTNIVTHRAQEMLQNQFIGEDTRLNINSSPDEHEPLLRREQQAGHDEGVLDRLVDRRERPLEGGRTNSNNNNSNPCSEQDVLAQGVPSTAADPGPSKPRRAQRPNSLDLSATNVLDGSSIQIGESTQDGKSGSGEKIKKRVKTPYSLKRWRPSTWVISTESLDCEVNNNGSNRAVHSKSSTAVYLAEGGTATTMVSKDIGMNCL
Chain of AURKC (human) (Q9UQB9 whole entry, looked up): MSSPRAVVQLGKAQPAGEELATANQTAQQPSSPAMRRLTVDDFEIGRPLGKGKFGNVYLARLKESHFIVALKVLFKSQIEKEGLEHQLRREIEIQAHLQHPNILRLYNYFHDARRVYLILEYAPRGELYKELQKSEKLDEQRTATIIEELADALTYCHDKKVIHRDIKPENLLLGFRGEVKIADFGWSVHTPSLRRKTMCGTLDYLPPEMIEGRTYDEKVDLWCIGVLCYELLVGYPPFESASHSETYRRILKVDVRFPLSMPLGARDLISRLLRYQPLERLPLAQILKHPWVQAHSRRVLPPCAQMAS
Chain of EPHA7 (human) (Q15375 whole entry, looked up): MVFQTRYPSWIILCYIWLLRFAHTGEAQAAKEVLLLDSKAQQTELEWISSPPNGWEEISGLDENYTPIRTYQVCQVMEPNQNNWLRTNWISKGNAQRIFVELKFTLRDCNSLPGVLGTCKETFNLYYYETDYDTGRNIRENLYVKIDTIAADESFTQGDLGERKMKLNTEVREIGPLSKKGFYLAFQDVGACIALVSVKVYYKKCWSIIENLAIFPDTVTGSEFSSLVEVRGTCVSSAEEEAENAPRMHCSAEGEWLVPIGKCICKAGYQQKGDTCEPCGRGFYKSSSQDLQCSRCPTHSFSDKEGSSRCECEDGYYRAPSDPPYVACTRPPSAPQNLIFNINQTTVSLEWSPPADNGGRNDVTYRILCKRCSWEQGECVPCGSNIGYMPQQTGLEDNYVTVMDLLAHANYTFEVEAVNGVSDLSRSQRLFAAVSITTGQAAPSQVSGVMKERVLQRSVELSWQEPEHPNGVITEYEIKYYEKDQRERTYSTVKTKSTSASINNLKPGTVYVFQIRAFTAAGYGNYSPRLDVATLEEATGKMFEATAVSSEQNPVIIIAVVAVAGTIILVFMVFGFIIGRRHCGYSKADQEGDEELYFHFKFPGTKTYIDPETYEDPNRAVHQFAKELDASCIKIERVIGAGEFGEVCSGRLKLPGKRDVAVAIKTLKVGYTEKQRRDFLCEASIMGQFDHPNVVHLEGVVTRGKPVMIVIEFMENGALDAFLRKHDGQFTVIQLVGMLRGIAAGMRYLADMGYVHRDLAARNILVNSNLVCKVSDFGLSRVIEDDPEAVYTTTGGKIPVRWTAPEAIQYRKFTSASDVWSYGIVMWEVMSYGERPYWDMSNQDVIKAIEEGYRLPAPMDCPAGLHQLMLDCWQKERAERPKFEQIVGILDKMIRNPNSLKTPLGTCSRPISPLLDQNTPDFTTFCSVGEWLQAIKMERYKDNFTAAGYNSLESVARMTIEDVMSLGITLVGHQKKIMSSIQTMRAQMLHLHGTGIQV
Chain of NEK4 (human) (P51957 whole entry, looked up): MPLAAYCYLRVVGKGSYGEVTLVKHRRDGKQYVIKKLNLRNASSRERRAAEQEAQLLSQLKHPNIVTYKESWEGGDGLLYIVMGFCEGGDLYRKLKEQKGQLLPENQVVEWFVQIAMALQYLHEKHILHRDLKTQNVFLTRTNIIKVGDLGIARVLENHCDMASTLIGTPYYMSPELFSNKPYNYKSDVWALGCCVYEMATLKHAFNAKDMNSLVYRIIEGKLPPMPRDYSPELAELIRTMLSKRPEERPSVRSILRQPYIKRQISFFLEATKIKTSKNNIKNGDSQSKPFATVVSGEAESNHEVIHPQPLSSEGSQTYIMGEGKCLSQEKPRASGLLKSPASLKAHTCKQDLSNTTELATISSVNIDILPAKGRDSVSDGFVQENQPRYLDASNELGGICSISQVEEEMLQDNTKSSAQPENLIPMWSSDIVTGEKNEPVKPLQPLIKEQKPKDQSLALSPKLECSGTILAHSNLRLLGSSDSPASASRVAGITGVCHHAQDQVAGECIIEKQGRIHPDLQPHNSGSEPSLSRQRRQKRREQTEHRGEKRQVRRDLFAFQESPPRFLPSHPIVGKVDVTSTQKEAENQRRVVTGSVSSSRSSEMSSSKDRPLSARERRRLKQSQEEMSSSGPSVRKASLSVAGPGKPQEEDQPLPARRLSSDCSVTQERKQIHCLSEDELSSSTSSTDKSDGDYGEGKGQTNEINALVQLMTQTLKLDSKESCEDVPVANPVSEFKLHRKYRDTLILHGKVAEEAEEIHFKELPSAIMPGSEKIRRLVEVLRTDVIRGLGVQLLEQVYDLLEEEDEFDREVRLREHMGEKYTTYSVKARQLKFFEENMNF
Chain of SGK110 (human) (P0C264 whole entry, looked up): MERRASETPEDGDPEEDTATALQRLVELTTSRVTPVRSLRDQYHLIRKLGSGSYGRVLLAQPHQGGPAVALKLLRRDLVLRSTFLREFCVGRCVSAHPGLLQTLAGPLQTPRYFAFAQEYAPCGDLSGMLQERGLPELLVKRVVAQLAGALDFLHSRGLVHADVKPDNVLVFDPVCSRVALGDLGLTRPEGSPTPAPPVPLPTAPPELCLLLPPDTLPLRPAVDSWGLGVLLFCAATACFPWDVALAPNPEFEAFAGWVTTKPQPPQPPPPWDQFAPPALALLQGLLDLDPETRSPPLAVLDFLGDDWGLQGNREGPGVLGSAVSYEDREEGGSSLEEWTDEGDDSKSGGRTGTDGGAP
Chain of ANKK1 (human) (Q8NFD2 whole entry, looked up): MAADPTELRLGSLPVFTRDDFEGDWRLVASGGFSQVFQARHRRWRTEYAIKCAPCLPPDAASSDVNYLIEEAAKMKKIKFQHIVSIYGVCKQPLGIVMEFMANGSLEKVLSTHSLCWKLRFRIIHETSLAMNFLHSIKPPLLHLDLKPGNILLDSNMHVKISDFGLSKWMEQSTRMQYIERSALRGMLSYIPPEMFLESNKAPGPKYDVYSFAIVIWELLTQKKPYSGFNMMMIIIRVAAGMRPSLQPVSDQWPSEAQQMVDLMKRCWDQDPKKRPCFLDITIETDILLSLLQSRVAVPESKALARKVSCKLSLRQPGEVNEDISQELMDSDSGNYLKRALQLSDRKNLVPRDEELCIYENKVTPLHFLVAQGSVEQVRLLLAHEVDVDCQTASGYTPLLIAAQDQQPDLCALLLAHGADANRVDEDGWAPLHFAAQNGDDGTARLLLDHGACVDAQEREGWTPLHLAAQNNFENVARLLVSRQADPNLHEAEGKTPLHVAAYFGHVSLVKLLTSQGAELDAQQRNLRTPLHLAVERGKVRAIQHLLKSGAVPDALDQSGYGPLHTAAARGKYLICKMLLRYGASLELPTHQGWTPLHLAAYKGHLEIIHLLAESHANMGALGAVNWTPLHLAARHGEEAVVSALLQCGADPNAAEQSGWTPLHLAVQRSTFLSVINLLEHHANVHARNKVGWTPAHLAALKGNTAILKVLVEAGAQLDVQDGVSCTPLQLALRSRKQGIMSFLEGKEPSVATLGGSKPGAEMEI

| Compound | kinase still bound, per cent of control (ANKK1 (human)) | kinase still bound, per cent of control (AURKC (human)) | kinase still bound, per cent of control (BMPR2 (human)) | kinase still bound, per cent of control (BRSK2 (human)) | kinase still bound, per cent of control (CDK4 CCND3 (human)) | kinase still bound, per cent of control (CDKL5 (human)) | kinase still bound, per cent of control (CSNK1G1 (human)) | kinase still bound, per cent of control (CSNK2A2 (human)) | kinase still bound, per cent of control (DAPK1 (human)) | kinase still bound, per cent of control (DDR2 (human)) | kinase still bound, per cent of control (DYRK2 (human)) | kinase still bound, per cent of control (EGFR (human)) | kinase still bound, per cent of control (EPHA7 (human)) | kinase still bound, per cent of control (GSK3B (human)) | kinase still bound, per cent of control (HIPK1 (human)) | kinase still bound, per cent of control (HUNK (human)) | kinase still bound, per cent of control [1] | kinase still bound, per cent of control (KDR (human)) | kinase still bound, per cent of control (MAP3K5 (human)) | kinase still bound, per cent of control (MAP4K4 (human)) | also measured |
| --- | --- | --- | --- | --- | --- | --- | --- | --- | --- | --- | --- | --- | --- | --- | --- | --- | --- | --- | --- | --- | --- |
| NC(=O)Nc1cc(-c2cccc(F)c2)sc1C(=O)N[C@@H]1CCCNC1 | 1.2% | 0.7% | 3.4% | 2.8% | 92% | 100% | 7.6% | 5.9% | 0.1% | 0% | 26% | 0.25% | 0.1% | 41% | 7.2% | 68% | 0% | 0.05% | 40% | 0.5% | kinase still bound, per cent of control (MAPK3 (human)): 91%; kinase still bound, per cent of control (MAPK4 (human)): 61%; kinase still bound, per cent of control (MINK1 (human)): 1.6%; kinase still bound, per cent of control (MUSK (human)): 18%; kinase still bound, per cent of control (MYLK3 (human)): 10%; kinase still bound, per cent of control (MYO3A (human)): 4.2%; kinase still bound, per cent of control (NEK4 (human)): 22%; kinase still bound, per cent of control (PRKD2 (human)): 0.9%; kinase still bound, per cent of control (PTK2 (human)): 0.1%; kinase still bound, per cent of control (RPS6KA6 KD1 (human)): 0.3%; kinase still bound, per cent of control (SGK110 (human)): 0%; kinase still bound, per cent of control (SLK (human)): 0.05%; kinase still bound, per cent of control (STK10 (human)): 0%; kinase still bound, per cent of control (STK32A (human)): 1%; kinase still bound, per cent of control (STK38 (human)): 4%; kinase still bound, per cent of control (STK4 (human)): 0.4%; kinase still bound, per cent of control (TEK (human)): 17%; kinase still bound, per cent of control (TTK (human)): 12%; kinase still bound, per cent of control (ULK1 (human)): 0%; kinase still bound, per cent of control (ULK3 (human)): 0% |
| O=C(Nc1cccc(Nc2ncc(Br)c(NCCc3cnc[nH]3)n2)c1)N1CCCC1 | 4.3% | 0% | 13% | 5.8% | 0.35% | 1.8% | 54% | 0% | 1.2% | 65% | 3.4% | 47% | 44% | 44% | 1.2% | 73% | 0% | 1.8% | 24% | 2.4% | kinase still bound, per cent of control (MAPK3 (human)): 76%; kinase still bound, per cent of control (MAPK4 (human)): 3.2%; kinase still bound, per cent of control (MINK1 (human)): 4.2%; kinase still bound, per cent of control (MUSK (human)): 9.4%; kinase still bound, per cent of control (MYLK3 (human)): 0.1%; kinase still bound, per cent of control (MYO3A (human)): 28%; kinase still bound, per cent of control (NEK4 (human)): 9.4%; kinase still bound, per cent of control (PRKD2 (human)): 1.7%; kinase still bound, per cent of control (PTK2 (human)): 0.2%; kinase still bound, per cent of control (RPS6KA6 KD1 (human)): 0.6%; kinase still bound, per cent of control (SGK110 (human)): 0.95%; kinase still bound, per cent of control (SLK (human)): 0.35%; kinase still bound, per cent of control (STK10 (human)): 4.6%; kinase still bound, per cent of control (STK32A (human)): 51%; kinase still bound, per cent of control (STK38 (human)): 35%; kinase still bound, per cent of control (STK4 (human)): 12%; kinase still bound, per cent of control (TEK (human)): 12%; kinase still bound, per cent of control (TTK (human)): 5%; kinase still bound, per cent of control (ULK1 (human)): 0.05%; kinase still bound, per cent of control (ULK3 (human)): 0.1% |
| O=c1cc(N2CCOCC2)oc2c(-c3cccc4c3sc3ccccc34)cccc12 | 100% | 100% | 83% | 100% | 100% | 100% | 92% | 100% | 72% | 100% | 100% | 94% | 85% | 44% | 93% | 75% | 81% | 100% | 100% | 100% | kinase still bound, per cent of control (MAPK3 (human)): 100%; kinase still bound, per cent of control (MAPK4 (human)): 100%; kinase still bound, per cent of control (MINK1 (human)): 100%; kinase still bound, per cent of control (MUSK (human)): 100%; kinase still bound, per cent of control (MYLK3 (human)): 100%; kinase still bound, per cent of control (MYO3A (human)): 89%; kinase still bound, per cent of control (NEK4 (human)): 100%; kinase still bound, per cent of control (PRKD2 (human)): 100%; kinase still bound, per cent of control (PTK2 (human)): 70%; kinase still bound, per cent of control (RPS6KA6 KD1 (human)): 71%; kinase still bound, per cent of control (SGK110 (human)): 100%; kinase still bound, per cent of control (SLK (human)): 100%; kinase still bound, per cent of control (STK10 (human)): 100%; kinase still bound, per cent of control (STK32A (human)): 100%; kinase still bound, per cent of control (STK38 (human)): 100%; kinase still bound, per cent of control (STK4 (human)): 98%; kinase still bound, per cent of control (TEK (human)): 100%; kinase still bound, per cent of control (TTK (human)): 100%; kinase still bound, per cent of control (ULK1 (human)): 41%; kinase still bound, per cent of control (ULK3 (human)): 64% |

— the kinase profiling compilation of Christmann-Franck et al. (2016)
